Measured values as given in US20080161232A1, “C5a Receptor Antagonist” (JERINI AG, priority 2005, published 2008).
Starred links: 1 amine or outer side, 2 acyl side, 3 side chain; linkers in the order of their positions; H or OH if unused. Positions of bridges follow the written chain, without caps; N, C: chain ends. Non-standard residues stand in square brackets, D forms with d. Residues, ends and D or L forms follow the SMILES beside them. ξ: configuration not given here. *: point of attachment. Dihydroorotyl(S) = O=C1C[C@@H](C(=O)*)NC(=O)N1; dβ3hPhg = O=C(C[C@H](N[*:1])c1ccccc1)[*:2]; Decanoyl(3,6,9-trioxa) = COCCOCCOCC(=O)*; Phe(3-Cl) = N[C@@H](Cc1cccc(Cl)c1)C(=O)O; Phe(4-F) = N[C@@H](Cc1ccc(F)cc1)C(=O)O; X11 = N=C(N)N[C@@H](Cc1ccccc1)C(=O)*; Bta = N[C@@H](Cc1csc2ccccc12)C(=O)O; Hyp = O=C(O)[C@@H]1C[C@@H](O)CN1; d(hLeu) = CC(C)CC[C@@H](N)C(=O)O; ξNip = O=C(C1CCCN([*:1])C1)[*:2]; Cit = NC(=O)NCCC[C@H](N)C(=O)O; dCha = N[C@H](CC1CCCCC1)C(=O)O; Methoxyoxalyl = COC(=O)C(=O)*; Chg = N[C@H](C(=O)O)C1CCCCC1; Nle = CCCC[C@H](N)C(=O)O; Orn = NCCC[C@H](N)C(=O)O; βAla = NCCC(=O)O; tBu = CC(C)(C)*

Target: T1, human C5aR(CD88) (Homo sapiens, UniProt P21730)
T1 construct: expressed in transfected cells; host or cells: rat basophilic leukemia cells (RBL)
T1 sequence (P21730 1-350): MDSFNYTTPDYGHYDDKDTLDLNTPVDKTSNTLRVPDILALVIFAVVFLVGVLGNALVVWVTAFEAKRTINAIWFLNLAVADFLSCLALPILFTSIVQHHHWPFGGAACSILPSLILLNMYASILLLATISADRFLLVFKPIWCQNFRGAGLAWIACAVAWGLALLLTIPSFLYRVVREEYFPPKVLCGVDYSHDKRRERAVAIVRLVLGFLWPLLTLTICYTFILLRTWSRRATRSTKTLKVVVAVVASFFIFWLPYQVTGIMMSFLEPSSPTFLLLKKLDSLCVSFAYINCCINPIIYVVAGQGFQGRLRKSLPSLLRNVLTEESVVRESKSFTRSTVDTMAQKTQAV
Experiment: Determination of the IC50 value in an enzyme release assay (functional assay, antagonistic activity)
Type: cell-based
Settings: activity (group)

SMILES	IC50 [nM]
CO[C@@H]1C[C@H]2C(=O)N[C@H](CCC(C)C)C(=O)N[C@@H](Cc3ccc(F)cc3)C(=O)N[C@@H](Cc3ccccc3)C(=O)NCCC[C@H](NC(=O)[C@@H](N)Cc3ccccc3)C(=O)N2C1 [Compound 355, H-Phe-[Orn-Hym-hle-Pff-Phe]] (H-F[Orn][Hyp](Me)[d(hLeu)][Phe(4-F)]F; lactam 2-C)	50 to 200

Same assay, conditions: antagonistic activity; IC50 group in enzyme release assay, RBL cells expressing human C5aR(CD88); read-out: activity (group)

SMILES	IC50 [nM]
COCCOCCOCC(=O)N[C@@H](Cc1ccccc1)C(=O)N[C@H]1CCCNC(=O)[C@H](Cc2ccccc2)NC(=O)[C@H](Cc2c[nH]c3ccccc23)NC(=O)[C@@H](CC2CCCCC2)NC(=O)[C@@H]2C[C@@H](O)CN2C1=O [Compound 337, Fhi-Phe-[Orn-Hyp-cha-Trp-Phe]] ({Decanoyl(3,6,9-trioxa)}-F[Orn][Hyp][dCha]WF; lactam 2-C)	50 to 200
CCCC[C@@H]1NC(=O)[C@H](Cc2ccc(F)cc2)NC(=O)[C@@H](CCC(C)C)NC(=O)[C@@H]2CCCN2C(=O)[C@@H](NC(=O)[C@H](Cc2ccccc2)NC(=N)N)CCCNC1=O [Compound 338, Fhu-Phe-[Orn-Pro-hle-Pff-Nle]] (X11-[Orn]P[d(hLeu)][Phe(4-F)][Nle]; lactam 1-C)	50 to 200
N=C(N)N[C@@H](Cc1ccccc1)C(=O)N[C@@H](CCCN)C(=O)N1CCC[C@H]1C(=O)N[C@H](CC1CCCCC1)C(=O)N[C@@H](Cc1csc2ccccc12)C(=O)N[C@@H](Cc1ccccc1)C(N)=O [Compound 339, Fhu-Phe-Orn-Pro-cha-Bta-Phe-NH2] (X11-[Orn]P[dCha][Bta]F-NH2)	50 to 200
COC(=O)C(=O)N[C@@H](Cc1ccccc1)C(=O)N[C@@H](CCCN)C(=O)N1CCC[C@H]1C(=O)N[C@H](CC1CCCCC1)C(=O)N[C@@H](Cc1csc2ccccc12)C(=O)N[C@@H](Cc1ccccc1)C(N)=O [Compound 340, Fid-Phe-Orn-Pro-cha-Bta-Phe-NH2] (Methoxyoxalyl-F[Orn]P[dCha][Bta]F-NH2)	50 to 200
CCCC[C@@H]1NC(=O)[C@H](Cc2c[nH]c3ccccc23)NC(=O)[C@@H](CCC(C)C)NC(=O)[C@@H]2C[C@@H](O)CN2C(=O)[C@@H](NC(=O)[C@H](Cc2ccccc2)NC(=O)CCN)CCCNC1=O [Compound 342, H-Bal-Phe-[Orn-Hyp-hle-Trp-Nle]] (H-[βAla]F[Orn][Hyp][d(hLeu)]W[Nle]; lactam 3-C)	50 to 200
CCCC[C@@H]1NC(=O)[C@H](Cc2c[nH]c3ccccc23)NC(=O)[C@@H](CCC(C)C)NC(=O)[C@@H]2C[C@@H](O)CN2C(=O)[C@@H](NC(=O)C[C@H](N)c2ccccc2)CCCNC1=O [Compound 344, H-Eby-[Orn-Hyp-hle-Trp-Nle]] (dβ3hPhg-[Orn][Hyp][d(hLeu)]W[Nle]; lactam 1-C)	50 to 200
NCCC[C@H](NC(=O)[C@H](Cc1ccccc1)NC(=O)CN)C(=O)N1CCC[C@H]1C(=O)N[C@H](CC1CCCCC1)C(=O)N[C@@H](Cc1csc2ccccc12)C(=O)N[C@@H](Cc1ccccc1)C(N)=O [Compound 345, H-Gly-Phe-Orn-Pro-cha-Bta-Phe-NH2] (H-GF[Orn]P[dCha][Bta]F-NH2)	50 to 200
CC(C)CC[C@@H](NC(=O)[C@@H]1CCCN1C(=O)[C@H](CCCNC(N)=O)NC(=O)[C@H](Cc1ccccc1)NC(=O)C1CCCNC1)C(=O)N[C@@H](Cc1csc2ccccc12)C(=O)N[C@@H](Cc1ccccc1)C(N)=O (stereo partly drawn) [Compound 346, H-Nip-Phe-Cit-Pro-hle-Bta-Phe-NH2] (ξNip-F[Cit]P[d(hLeu)][Bta]F-NH2)	50 to 200
CC(C)CC[C@@H](NC(=O)[C@@H]1CCCN1C(=O)[C@H](CCCN)NC(=O)[C@H](Cc1ccccc1)NC(=O)[C@@H]1CC(=O)NC(=O)N1)C(=O)N[C@@H](Cc1csc2ccccc12)C(=O)N[C@@H](Cc1ccccc1)C(N)=O [Compound 350, Hoo-Phe-Orn-Pro-hle-Bta-Phe-NH2] ({Dihydroorotyl(S)}-F[Orn]P[d(hLeu)][Bta]F-NH2)	20 to 50
CCCC[C@@H]1NC(=O)[C@H](Cc2cccc(Cl)c2)NC(=O)[C@@H](CCC(C)C)NC(=O)[C@@H]2C[C@@H](OC)CN2C(=O)[C@@H](NC(=O)[C@@H](N)Cc2ccccc2)CCCNC1=O [Compound 354, H-Phe-[Orn-Hym-hle-Mcf-Nle]] (H-F[Orn][Hyp](Me)[d(hLeu)][Phe(3-Cl)][Nle]; lactam 2-C)	50 to 200
CCCC[C@@H]1NC(=O)[C@H](Cc2c[nH]c3ccccc23)NC(=O)[C@@H](CC2CCCCC2)NC(=O)[C@@H]2C[C@@H](O)CN2C(=O)[C@@H](NC(=O)[C@@H](N)Cc2ccccc2)CCCNC1=O [Compound 356, H-Phe-[Orn-Hyp-cha-Trp-Nle]] (H-F[Orn][Hyp][dCha]W[Nle]; lactam 2-C)	20 to 50
N[C@@H](Cc1ccccc1)C(=O)N[C@H]1CCCNC(=O)[C@H](Cc2ccccc2)NC(=O)[C@H](Cc2c[nH]c3ccccc23)NC(=O)[C@@H](CC2CCCCC2)NC(=O)[C@@H]2C[C@@H](O)CN2C1=O [Compound 357, H-Phe-[Orn-Hyp-cha-Trp-Phe]] (H-F[Orn][Hyp][dCha]WF; lactam 2-C)	20 to 50
CCCC[C@@H]1NC(=O)[C@H](Cc2ccc(F)cc2)NC(=O)[C@@H](CSC(C)(C)C)NC(=O)[C@@H]2C[C@@H](O)CN2C(=O)[C@@H](NC(=O)[C@@H](N)Cc2ccccc2)CCCNC1=O [Compound 358, H-Phe-[Orn-Hyp-ctb-Pff-Nle]] (H-F[Orn][Hyp][dC](tBu)[Phe(4-F)][Nle]; lactam 2-C)	50 to 200
CCCC[C@@H]1NC(=O)[C@H](Cc2c[nH]c3ccccc23)NC(=O)[C@@H](CSC(C)(C)C)NC(=O)[C@@H]2C[C@@H](O)CN2C(=O)[C@@H](NC(=O)[C@@H](N)Cc2ccccc2)CCCNC1=O [Compound 359, H-Phe-[Orn-Hyp-ctb-Trp-Nle]] (H-F[Orn][Hyp][dC](tBu)W[Nle]; lactam 2-C)	20 to 50
CC(C)(C)SC[C@H]1NC(=O)[C@@H]2C[C@@H](O)CN2C(=O)[C@@H](NC(=O)[C@@H](N)Cc2ccccc2)CCCNC(=O)[C@H](Cc2ccccc2)NC(=O)[C@H](Cc2c[nH]c3ccccc23)NC1=O [Compound 360, H-Phe-[Orn-Hyp-ctb-Trp-Phe]] (H-F[Orn][Hyp][dC](tBu)WF; lactam 2-C)	20 to 50
CC(C)CC[C@H]1NC(=O)[C@@H]2C[C@@H](O)CN2C(=O)[C@@H](NC(=O)[C@@H](N)Cc2ccccc2)CCCNC(=O)[C@H](C2CCCCC2)NC(=O)[C@H](Cc2ccc(F)cc2)NC1=O [Compound 362, H-Phe-[Orn-Hyp-hle-Pff-Chg]] (H-F[Orn][Hyp][d(hLeu)][Phe(4-F)][Chg]; lactam 2-C)	50 to 200

Results, then the compound that gave them:

IC50 [nM]	SMILES
50 to 200	CCCC[C@@H]1NC(=O)[C@H](Cc2ccc(F)cc2)NC(=O)[C@@H](CCC(C)C)NC(=O)[C@@H]2CCCN2C(=O)[C@@H](NC(=O)[C@H](Cc2ccccc2)NC(=O)CCN)CCCNC1=O [Compound 343, H-Bal-Phe-[Orn-Pro-hle-Pff-Nle]] (H-[βAla]F[Orn]P[d(hLeu)][Phe(4-F)][Nle]; lactam 3-C)
50 to 200	CCCC[C@@H]1NC(=O)[C@H](Cc2ccc(F)cc2)NC(=O)[C@@H](CCC(C)C)NC(=O)[C@@H]2C[C@@H](O)CN2C(=O)[C@@H](NC(=O)[C@H](Cc2ccccc2)NC(=O)[C@@H]2CC(=O)NC(=O)N2)CCCNC1=O [Compound 347, Hoo-Phe-[Orn-Hyp-hle-Pff-Nle]] ({Dihydroorotyl(S)}-F[Orn][Hyp][d(hLeu)][Phe(4-F)][Nle]; lactam 2-C)
50 to 200	CC(C)CC[C@@H](NC(=O)[C@@H]1CCCN1C(=O)[C@H](CCCNC(N)=O)NC(=O)[C@H](Cc1ccccc1)NC(=O)[C@@H]1CC(=O)NC(=O)N1)C(=O)N[C@@H](Cc1ccc(F)cc1)C(=O)N[C@@H](Cc1ccccc1)C(N)=O [Compound 348, Hoo-Phe-Cit-Pro-hle-Pff-Phe-NH2] ({Dihydroorotyl(S)}-F[Cit]P[d(hLeu)][Phe(4-F)]F-NH2)
50 to 200	CC(C)CC[C@@H](NC(=O)[C@@H]1C[C@@H](O)CN1C(=O)[C@H](CCCN)NC(=O)[C@H](Cc1ccccc1)NC(=O)[C@@H]1CC(=O)NC(=O)N1)C(=O)N[C@@H](Cc1ccc(F)cc1)C(=O)N[C@@H](Cc1ccccc1)C(N)=O [Compound 349, Hoo-Phe-Orn-Hyp-hle-Pff-Phe-NH2] ({Dihydroorotyl(S)}-F[Orn][Hyp][d(hLeu)][Phe(4-F)]F-NH2)
20 to 50	CC(C)CC[C@@H](NC(=O)[C@@H]1CCCN1C(=O)[C@H](CCCN)NC(=O)[C@H](Cc1ccccc1)NC(=O)[C@@H]1CC(=O)NC(=O)N1)C(=O)N[C@@H](Cc1cccc(Cl)c1)C(=O)N[C@@H](Cc1ccccc1)C(N)=O [Compound 351, Hoo-Phe-Orn-Pro-hle-Mcf-Phe-NH2] ({Dihydroorotyl(S)}-F[Orn]P[d(hLeu)][Phe(3-Cl)]F-NH2)
20 to 50	CC(C)CC[C@@H](NC(=O)[C@@H]1CCCN1C(=O)[C@H](CCCN)NC(=O)[C@H](Cc1ccccc1)NC(=O)[C@@H]1CC(=O)NC(=O)N1)C(=O)N[C@@H](Cc1ccc(F)cc1)C(=O)N[C@@H](Cc1ccccc1)C(N)=O [Compound 352, Hoo-Phe-Orn-Pro-hle-Pff-Phe-NH2] ({Dihydroorotyl(S)}-F[Orn]P[d(hLeu)][Phe(4-F)]F-NH2)
50 to 200	CCCC[C@@H]1NC(=O)[C@H](Cc2ccc(F)cc2)NC(=O)[C@@H](CCC(C)C)NC(=O)[C@@H]2C[C@@H](O)CN2C(=O)[C@@H](NC(=O)[C@@H](N)Cc2ccccc2)CCCCNC1=O [Compound 353, H-Phe-[Lys-Hyp-hle-Pff-Nle]] (H-FK[Hyp][d(hLeu)][Phe(4-F)][Nle]; lactam 2-C)
50 to 200	CC(C)CC[C@H]1NC(=O)[C@@H]2C[C@@H](O)CN2C(=O)[C@@H](NC(=O)[C@@H](N)Cc2ccccc2)CCCNC(=O)[C@H](CC(C)C)NC(=O)[C@H](Cc2cccc(Cl)c2)NC1=O [Compound 361, H-Phe-[Orn-Hyp-hle-Mcf-Leu]] (H-F[Orn][Hyp][d(hLeu)][Phe(3-Cl)]L; lactam 2-C)
